# Assays:
# [1] = system: recombinant GLUT4 (myc-GLUT4-ECFP) in C2C12 myotube cells; experiment: Measurement of GLUT4 membrane-translocation activity by anti-myc antibody uptake, western blot analysis; assay type: cell-based, mouse; conditions: insulin 100 nM, 60 minutes
# Experimental: The C2C12 myotube cells expressing a recombinant GLUT4, prepared according to Preparation Example 3, were stimulated by insulin with a final concentration of 100 nM for 60 minutes. After 30 minutes from the start of insulin stimulation, an anti-myc-monoclonal antibody with a final concentration of 4 μg/ml was supplemented in a culture medium. After insulin stimulation, the cells were washed 5 times with PBS (−) to remove anti-myc antibodies that were present on the cell membrane, and subsequently, a cell extract was prepared using Laemmli's buffer. The cell extract was used for 12.5% SDS-PAGE, and western blot analysis using an anti-mice-IgG antibody bound to horseradish peroxidase was carried out. Moreover, detection was carried out using a west super femto detection kit (Pierce Biotechnology Inc.).
# [2] = system: myc-GLUT4-ECFP in C2C12 myotube cells; experiment: Immunostaining of myc on the membrane, confocal microscope (membrane translocation of GLUT4); assay type: cell-based, mouse; conditions: insulin 100 nM, 60 minutes; FIG. 13
# Experimental: The C2C12 myotube cells (differentiation-type culture myotube cell) expressing a myc-GLUT4-ECFP, prepared according to Preparation Example 3, were stimulated by insulin with a final concentration of 100 nM for 60 minutes. After being washed 3 times with PBS (−), they were fixed by being shaken in PBS (−) supplemented with 2% paraformaldehyde for 15 minutes. After being washed 3 times×10 minutes with PBS (−), they were blocked by being shaken in PBS (−) supplemented with 5% bovine serum for 1 hour. Next, they were shaken for 1 hour using an anti-myc-monoclonal antibody diluted 200-fold with PBS (−) supplemented with 1% bovine serum albumin as a primary antibody. After being washed 5 times×10 minutes with PBS (−), they were shaken for 1 hour using an anti-mice-IgG antibody (The Jackson Laboratory) bound to rhodamine that was diluted 2000-fold with PBS (−) supplemented with 1% bovine serum albumin as a secondary antibody. Subsequently, the glass cover was removed, and they were placed on a glass slide on which Vecta Shield was dropped, and rhodamine and expression of ECFP were observed under a confocal microscope.
substance,measurement,setting,value
insulin,amount of the anti-myc antibody incorporated into the cells,[1]; FIG. 14A,significantly increased
same,GLUT4 activity increase by insulin (quantified western blot),"[1]; anti-myc antibody 4 μg/ml, FIG. 14C",approximately 3 fold
same,membrane translocation of GLUT4 (myc on the membrane),[2],GLUT4 was translocated on the membrane

# — patent publication US20080299086A1, “Cultured muscle cells with high metabolic activity and method for production of the cultured muscle cells” (TOHOKU UNIVERSITY, priority 2006, published 2008)
